Measurements from PubChem BioAssay AID2060895 (Molecular Pharmacology Branch, DTP, NCI, 2025).
Where “and” joins values, the source holds several entries; their conditions need not be identical. Equal values may be shown once.

Test system: PDC 899932-113-R3-J6 complex spheroid viability
Assay: Anticancer human tumor 899932-113-R3-J6-PDC patient-derived melanoma cell line growth inhibition [RAS]
Details: for viability, T/C: stronger effect = lower value
Text: RAS pathway inhibitors in Combinations in Complex Spheroids
A high-throughput screen of multi-cell type tumor spheroids was designed to identify active combinations of RAS pathway inhibitors and targeted small molecules. Complex spheroids include a stromal component modeled by human endothelial cells (HUVEC) and fibroblasts modeled by human mesenchymal stem cells (MSCs). The concentration ranges selected for each drug and investigational agent were based upon clinically achievable concentrations if the clinical Cmax of the agent was known.
Compounds. The drugs and investigational agents: abemaciclib (NSC768073), cobimetinib (NSC768068), divarasib (GDC6063, NSC841802), docetaxel (NSC628503), GDC-1971 (RLY-1971, NSC841576), gemcitabine (NSC613327), inavolisib (NSC800729), ipatasertib (NSC767898), KB-0742 (NSC834161), MRTX-1133 (NSC836407), osimertinib (NSC779217), RMC-4630 (NSC839698), RMC-6236 (NSC851965), RMC-6291 (NSC852671), Ro-3306 (NSC812927), sapanisertib (NSC764658), SN-38 (NSC673596), staurosporine (NSC755774), SY5609 (NSC837396), and tovorafenib (DAY101, NSC766906), were obtained from the National Cancer Institute (NCI) Developmental Therapeutics Program Chemical Repository. The FDA-approved anticancer drug set is available from the NCI Developmental Therapeutics Program. […] The stock solutions were prepared in dimethyl sulfoxide (DMSO, Sigma-Aldrich, St. Louis, MO, cat. D2650) at 800-fold the tested concentration and stored at -70 degrees C prior to their use. All drugs and investigational agents were tested over a range starting from a high concentration at or near the clinical Cmax and decreasing in half-log increments. If the clinical Cmax for an agent had not been determined, the highest concentration tested was 10 microM.
Cell Culture. All cells were maintained in an incubator at 37 degrees C and 5% CO2 with 95% humidity. The PDC lines were cultured according to standard operating procedures established by the NCI PDMR. All PDCs were thawed and cultured in Matrigel-coated flasks prepared with a working solution of 1X Ham's F-12 nutrient mix, without supplementation (Invitrogen, Waltham, MA, cat. 11765054), 100 U/mL penicillin-streptomycin (Invitrogen, cat. 15140122), and 2.5% Matrigel (Corning Inc., Corning, NY, cat. 354248) for the first three passages. The 362531-283-R-J2-PDC and 782815-120-R-J1-PDC lines were cultured in 6C/Colon 1B media, which includes advanced DMEM/F-12 (Thermo Fisher Scientific, cat. 12634028), 10 mM HEPES (Thermo Fisher Scientific, cat. 15630080), 1X GlutaMAX supplement (Thermo Fisher Scientific, cat. 35050061), 0.1 mg/mL primocin (InvivoGen, San Diego, CA, cat. ant-pm-2), 10% defined fetal bovine serum, heat inactivated (HyClone Laboratories Inc., Logan, UT, cat. SH30070.03HI), 50% L-WRN conditioned media (ATCC, cat. CRL-3276), 1.25 mM N-Acetyl-L-cysteine (Sigma-Aldrich, cat. A9165), 10 mM nicotinamide (Sigma-Aldrich, cat. N0636), 1X B-27 supplement (Thermo Fisher Scientific, cat. 17504044), 1X N-2 supplement (Thermo Fisher Scientific, cat. 17502048), 50 ng/mL human EGF (Thermo Fisher Scientific, cat. PHG0311), and 10 microM Y-27632 dihydrochloride (Tocris Bioscience, cat. 1254). The K12877-001-R-J1-PDC line was cultured in 6I media, which includes all 6C/Colon 1B media plus 10 ng/mL human FGF-10 (PeproTech, cat. 100-26), 1 ng/mL human FGF-2 (PeproTech, cat. 100-18B), 1 µM prostaglandin E2 (Tocris Bioscience, cat. 2296), […] hydrocortisone (Sigma-Aldrich, cat. H4001), and […] bovine insulin (Sigma-Aldrich, cat. I6634). The K86415-001-R-J1-PDC line was cultured in 6D media, which includes all 6C/Colon 1B media components minus the L-WRN conditioned media. The 485176-168-R4-J1-PDC was cultured in PANC media, which includes all 6C/Colon 1B media plus 100 ng/mL human FGF-10 (PeproTech, cat. 100-26), 500 nM SB-431542 (Selleckchem, cat. S1067), and 10 nM gastrin (Tocris Bioscience, cat. 3006). […]

[1] = compound alone, run of 09/09/2024
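For viability, T/C in this document: spheroids exposed to agents for seven days before readout; 100% = DMSO vehicle control wells.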

| IC50 (curve of compound) | Compound | viability, T/C (compound 0.0316 µM) | viability, T/C (compound 0.1 µM) | viability, T/C (compound 0.316 µM) | viability, T/C (compound 1 µM) | viability, T/C (compound 3.16 µM) | viability, T/C (compound 10 µM) | viability, T/C (compound 0.00316 µM) | also measured |
| --- | --- | --- | --- | --- | --- | --- | --- | --- | --- |
| > 1000 nM | C=CC(=O)N1CCN(c2nc(OCC3CCCN3C)nc3c(F)c(-c4nc(N)cc(C)c4C(F)(F)F)c(Cl)cc23)C(C)C1 (stereo not given) | 108% [middle of 12 runs] | 107% [middle of 12 runs] | 105% [middle of 12 runs] | 103% [middle of 12 runs] |  |  | 109% [middle of 12 runs] | viability, T/C (compound 0.01 µM): 108% [middle of 12 runs]; IC50 [1]: > 1000 nM |
| 5.72 µM [middle of 4 runs] | CC(C)NCC(C(=O)N1CCN(c2ncnc3c2C(C)CC3O)CC1)c1ccc(Cl)cc1 (stereo not given) | 110% [middle of 4 runs] | 99.1% [middle of 4 runs] | 97.7% [middle of 4 runs] | 84.7% [middle of 4 runs] | 62.5% [middle of 4 runs] | 39.9% [middle of 4 runs] |  |  |
| 583 nM [middle of 4 runs] | CCN1CCN(Cc2ccc(Nc3ncc(F)c(-c4cc(F)c5nc(C)n(C(C)C)c5c4)n3)nc2)CC1 | 97% [middle of 4 runs] | 80.7% [middle of 4 runs] | 71% [middle of 4 runs] | 30.1% [middle of 4 runs] |  |  | 104% [middle of 4 runs] | viability, T/C (compound 0.01 µM): 97.6% [middle of 4 runs] |

Continued, molecule first:

| Compound | IC50 (curve of compound) | viability, T/C (compound 0.0316 µM) | viability, T/C (compound 0.1 µM) | viability, T/C (compound 0.316 µM) | viability, T/C (compound 1 µM) | viability, T/C (compound 3.16 µM) | viability, T/C (compound 10 µM) | viability, T/C (compound 0.00316 µM) | also measured |
| --- | --- | --- | --- | --- | --- | --- | --- | --- | --- |
| C#Cc1c(F)ccc2cc(O)cc(-c3ncc4c(N5CC6CCC(C5)N6)nc(OCC56CCCN5CC(F)C6)nc4c3F)c12 (stereo not given) |  | 108% [middle of 8 runs] | 109% [middle of 8 runs] | 107% [middle of 8 runs] | 112% [middle of 8 runs] | 111% [middle of 8 runs] | 110% [middle of 8 runs] |  | IC50 [1]: > 10000 nM |
| C=CC(=O)Nc1cc(Nc2nccc(-c3cn(C)c4ccccc34)n2)c(OC)cc1N(C)CCN(C)C | > 1000 nM | 101% [middle of 4 runs] | 104% and 102% (2×) and 101% | 106% [middle of 4 runs] | 100% [middle of 4 runs] |  |  | 109% [middle of 4 runs] | viability, T/C (compound 0.01 µM): 98.4% [middle of 4 runs] |
| CC(C)n1nc(-c2ccc3oc(N)nc3c2)c2c(N)ncnc21 | > 100 nM and 76 nM and 69.3 nM | 71.8% [middle of 4 runs] |  |  |  |  |  | 116% [middle of 4 runs] | viability, T/C (compound 0.000316 µM): 107% [middle of 4 runs]; viability, T/C (compound 0.001 µM): 102% [middle of 4 runs] |
| CC(Nc1ccc2c(c1)OCCn1cc(N3C(=O)OCC3C(F)F)nc1-2)C(N)=O (stereo not given) | 1.74 µM [middle of 4 runs] | 104% [middle of 4 runs] | 71.2% [middle of 4 runs] | 63.9% [middle of 4 runs] | 58.4% [middle of 4 runs] | 46.1% (2×) and 45.7% and 46% | 35.1% [middle of 4 runs] |  |  |
| CC1(C)CCC(Nc2ncc(C(F)(F)F)c(-c3c[nH]c4c(P(C)(C)=O)c(C#N)ccc34)n2)CN1 (stereo not given) | 15 nM [middle of 4 runs] |  |  |  |  |  |  |  | viability, T/C (compound 0.000949 µM): 98.3% [middle of 4 runs]; viability, T/C (compound 0.003 µM): 75.5% [middle of 4 runs]; viability, T/C (compound 0.00949 µM): 53.9% [middle of 4 runs]; viability, T/C (compound 0.03 µM): 44.4% [middle of 4 runs]; viability, T/C (compound 0.0949 µM): 18.4% [middle of 4 runs]; viability, T/C (compound 0.3 µM): 12.9% [middle of 4 runs] |
| CC1(O)CCCC1n1c(=O)c(C(F)F)cc2cnc(NC3CCN(S(C)(=O)=O)CC3)nc21 (stereo not given) |  | 100% [middle of 4 runs] | 83.3% [middle of 4 runs] | 69.4% [middle of 4 runs] | 65.9% [middle of 4 runs] | 58.3% [middle of 4 runs] | 21.9% [middle of 4 runs] |  |  |
| CCC(CC)c1cc(NC2CCC(N)C2)n2nccc2n1 (stereo not given) | 1.63 µM [middle of 4 runs] | 106% [middle of 4 runs] | 94.7% [middle of 4 runs] | 99.3% [middle of 4 runs] |  | 1.29% [middle of 4 runs] | 1% [middle of 4 runs] |  |  |
| CCc1c2c(nc3ccc(O)cc13)-c1cc3c(c(=O)n1C2)COC(=O)[C@]3(O)CC |  |  |  |  |  |  |  |  | viability, T/C (compound 0.000949 µM): 94.3% [middle of 4 runs]; viability, T/C (compound 0.003 µM): 69.3% [middle of 4 runs]; viability, T/C (compound 0.00949 µM): 58.9% [middle of 4 runs]; viability, T/C (compound 0.03 µM): 48.3% [middle of 4 runs]; viability, T/C (compound 0.0949 µM): 42.1% [middle of 4 runs]; viability, T/C (compound 0.3 µM): 32.8% [middle of 4 runs] |
| CCn1c(-c2cc(N3CCN(C)CC3)cnc2C(C)OC)c2c3cc(ccc31)-c1csc(n1)CC(NC(=O)C1CC1C)C(=O)N1CCCC(N1)C(=O)OCC(C)(C)C2 (stereo not given) |  |  |  |  |  |  |  |  | viability, T/C (compound 0.000949 µM): 76% [middle of 8 runs]; viability, T/C (compound 0.003 µM): 38.2% [middle of 8 runs]; viability, T/C (compound 0.00949 µM): 3.79% [middle of 8 runs]; viability, T/C (compound 0.03 µM): 3.16% [middle of 8 runs]; viability, T/C (compound 0.0949 µM): 2.66% [middle of 8 runs]; viability, T/C (compound 0.3 µM): 2.33% [middle of 8 runs]; IC50 (compound alone, run of 08/26/2024): 2.05 nM [middle of 7 runs] |
| CCn1c(-c2cccnc2C(C)OC)c2c3cc(ccc31)N1CCOC(CC(NC(=O)C(C(C)C)N(C)C(=O)C3(F)CCN(C(=O)C#CC(C)(C)N(C)C)CC3)C(=O)N3CCCC(N3)C(=O)OCC(C)(C)C2)C1 (stereo not given) |  |  |  |  |  |  |  |  | viability, T/C (compound 0.000949 µM): 110% [middle of 8 runs]; viability, T/C (compound 0.003 µM): 108% [middle of 8 runs]; viability, T/C (compound 0.00949 µM): 105% [middle of 8 runs]; viability, T/C (compound 0.03 µM): 106% [middle of 8 runs]; viability, T/C (compound 0.0949 µM): 98.7% [middle of 8 runs]; viability, T/C (compound 0.3 µM): 92.5% [middle of 8 runs]; IC50 (compound alone, run of 08/20/2024): > 300 nM |
| C[C@@H](NC(=O)c1ncnc(N)c1Cl)c1ncc(C(=O)Nc2cc(C(F)(F)F)c(Cl)cn2)s1 | 7.59 µM [middle of 4 runs] | 126% [middle of 4 runs] | 132% [middle of 4 runs] |  |  | 105% [middle of 4 runs] | 32.6% [middle of 4 runs] |  |  |
| Nc1ccn(C2OC(CO)C(O)C2(F)F)c(=O)n1 (stereo not given) | 17 nM and 10.3 nM and 16.8 nM | 32.3% [middle of 4 runs] | 19.3% [middle of 4 runs] | 21% [middle of 4 runs] | 22.2% [middle of 4 runs] |  |  | 103% (2×) and 77.4% and 105% | viability, T/C (compound 0.01 µM): 65.5% [middle of 4 runs] |
| O=C(c1ccc(F)c(F)c1Nc1ccc(I)cc1F)N1CC(O)([C@@H]2CCCCN2)C1 | 7.85 nM [middle of 4 runs] | 6.94% [middle of 4 runs] | 3.21% [middle of 4 runs] | 1.96% [middle of 4 runs] | 1.06% [middle of 4 runs] |  |  | 74% [middle of 4 runs] |  |
